From patent publication US10273226B2, “Pyrazolyl-heteroarylamides as pesticides” (Bayer Animal Health GmbH, priority 2014, dated 2019)

How the values were obtained:
Type in all cases: in vivo
Lucilia cuprina = Lucilia cuprina test; details: application rate 100 ppm; L1 larvae; after 2 days
Outline: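 About 20 L1 larvae placed in vessels with minced horsemeat treated with compound (DMSO concentrate diluted in water) at the desired concentration. Kill (%) scored after 2 days; 100% means all larvae dead, 0% none.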

Phaedon cochleariae = Phaedon cochleariae spray test; details: application rate 100 g/ha; larvae; after 7 days
Outline: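 Chinese cabbage leaf discs were sprayed with the compound formulated in water containing 1000 ppm emulsifier. After drying, they were infested with mustard beetle larvae. Efficacy was scored as % larvae killed after 7 days (100% = all dead, 0% = none).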

Boophilus microplus = Boophilus microplus injection test; details: application rate 20 μg/animal; injection into abdomen; assessed after 7 days
Outline: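 Read-out is % efficacy from fertile egg laying at 7 days: 100% means no tick laid fertile eggs, 0% means all eggs fertile. Each of 5 engorged adult females received 1 μl of DMSO test solution injected abdominally.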

[1] = system: Anopheles gambiae strain RSPH (homozygot kdr); assay: Anopheles test (ANPHGB surface treatment); details: application rate 100 mg/m^2, exposure 30 minutes, 24 hours after contact, read-out: efficacy (mortality in %)
Procedure: Anopheles Test (ANPHGB Surface Treatment)
(§1) Solvent: acetone+2000 ppm rapeseed oil methyl ester (RME)
(§2) To produce an appropriate active ingredient formulation, the active ingredient is dissolved in the solvent (2 mg/ml). The active ingredient formulation is pipetted onto a glazed tile and, after it has dried off, adult mosquitoes of the species Anopheles gambiae strain RSPH (homozygot kdr) are placed onto the treated tile. The exposure time is 30 minutes.
(§3) 24 hours after contact with the treated surface, mortality in % is determined. 100% means that all the mosquitoes have been killed; 0% means that none of the mosquitoes have been killed.

Tetranychus urticae = Tetranychus urticae spray test, OP-resistant; details: application rate 100 g/ha; after 6 days
Outline: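 Bean leaf discs (Phaseolus vulgaris) carrying all stages of OP-resistant mites are sprayed with compound formulated in solvent and emulsifier-containing water. Efficacy (% mites killed) is scored after 6 days.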

Ctenocephalides felis = Ctenocephalides felis oral test; details: application rate 100 ppm in citrated cattle blood; after 2 days
Outline: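 Compound dissolved in DMSO (10 mg in 0.5 ml stock) and diluted with citrated cattle blood to test concentration. About 20 unfed adult fleas fed on the treated blood through a parafilm membrane. Kill (%) scored after 2 days; 100% = all fleas dead.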

[2] = system: Anopheles funestus strain FUMOZ-R; assay: Anopheles test (ANPHFU surface treatment); details: 24 hours after contact, read-out: efficacy (mortality in %)
Procedure: Anopheles Test (ANPHFU Surface Treatment)
as §1
as §2, with “funestus” for “gambiae”, “FUMOZ-R (Hunt et al., Med Vet Entomol. 2005 September; 19 (3):271-5)” for “RSPH (homozygot kdr)”
as §3

Musca domestica = Musca domestica test; details: application rate 100 ppm; adult houseflies; after 2 days
Outline: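 Compound dissolved in DMSO (10 mg per 0.5 ml) and diluted with water to the test concentration. Sponges soaked with sugar solution plus formulation were offered to 10 adult houseflies per vessel. Mortality (% kill, 100% = all dead, 0% = none) scored after 2 days.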

[3] = system: Boophilus microplus Parkhurst strain, SP-resistant; assay: Boophilus microplus dip test; details: application rate 100 ppm, assessed after 7 days
Outline: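 Adult engorged females of SP-resistant Parkhurst strain (8–10 per tube) fully immersed in compound diluted in water from a DMSO solution. Ticks then kept on filter discs in a climate-controlled room; efficacy scored from fertile egg laying at 7 days, with unclear eggs held about 42 days until hatch (100% = no fertile eggs).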

[4] = system: Aedes aegypti strain MONHEIM; assay: Aedes test (AEDSAE surface treatment); details: 24 hours after contact, read-out: efficacy (mortality in %)
Procedure: Aedes Test (AEDSAE Surface Treatment)
as §1
as §2, with “Aedes aegypti” for “Anopheles gambiae”, “MONHEIM” for “RSPH (homozygot kdr)”
as §3

[5] = application rate 20 mg/m^2, exposure 30 minutes
[6] = application rate 100 mg/m^2, exposure 30 minutes

Cn1nc(C(F)(F)C(F)(F)F)c(C(F)(F)F)c1-n1cc(-c2cccc(NC(=O)c3ccncc3)c2)cn1 [Example 1-001, N-{3-[2′-Methyl-5′-(pentafluoroethyl)-4′-(trifluoromethyl)-2′H-1,3′-bipyrazol-4-yl]-phenyl}isonicotinamide]
efficacy (kill in %) (Lucilia cuprina): 100%
efficacy (Phaedon cochleariae): 100%
efficacy (laying of fertile eggs) (Boophilus microplus): 100%
mortality at 100 mg/m2 [1]: 90 to 100%
efficacy (Tetranychus urticae): 100%
efficacy (kill in %) (Ctenocephalides felis): 100%
mortality at 20 mg/m2 [2, 5]: 90 to 100%
mortality at 100 mg/m2 [2, 6]: 90 to 100%
efficacy (kill in %) (Musca domestica): 100%
efficacy (laying of fertile eggs) [3]: 95%
mortality at 20 mg/m2 [4, 5]: 90 to 100%
mortality at 100 mg/m2 [4, 6]: 90 to 100%
